{"source": "paper PMC7076352", "about": "(Pharmaceutics, 2020)", "key": {"CYP2C19 [1]": {"tested_on": "CYP2C19", "test": "in vitro", "conditions": "rat", "how_it_was_run": "(§1)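 Probe substrates were pooled in a single microsomal incubation, with each substrate concentration optimized to keep metabolite formation linear. Metabolites were quantified against isotope-labelled internal standards: hydroxybupropion-[D6] (OHBUP-[D6]) and 5 nM 4′-hydroxydiclofenac-[^13C6] (OHDIC-[^13C6]).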"}, "CYP2B6 [2]": {"tested_on": "CYP2B6", "test": "in vitro", "conditions": "microsomes", "how_it_was_run": "as §1"}, "CYP2C9 [3]": {"tested_on": "CYP2C9", "test": "in vitro", "conditions": "Sprague-Dawley, rat, microsomes, pH 7.4", "how_it_was_run": "as §1"}, "CYP2D6 [4]": {"tested_on": "CYP2D6", "test": "in vitro", "conditions": "rat, pH 7.4", "how_it_was_run": "as §1"}, "CYP3A4": {"tested_on": "CYP3A4", "test": "in vitro", "conditions": "Sprague-Dawley, rat, microsomes, pH 7.4", "how_it_was_run": "as §1"}, "[5]": {"tested_on": "CYP450s (isozyme not named)", "test": "In vitro cocktail CYP450 activity assay, isozyme not given", "type": "in vitro ADME, SD rat", "conditions": "Sprague-Dawley, rat, pH 7.4", "description": "(OHBUP-[D6]) and 5 nM 4′-hydroxydiclofenac-[^13C6] (OHDIC-[^13C6]) as internal standards (ISs)."}, "CYP2E1": {"target": "CYP2E1 (Rattus norvegicus, UniProt P05182)", "sequence (P05182 whole entry)": "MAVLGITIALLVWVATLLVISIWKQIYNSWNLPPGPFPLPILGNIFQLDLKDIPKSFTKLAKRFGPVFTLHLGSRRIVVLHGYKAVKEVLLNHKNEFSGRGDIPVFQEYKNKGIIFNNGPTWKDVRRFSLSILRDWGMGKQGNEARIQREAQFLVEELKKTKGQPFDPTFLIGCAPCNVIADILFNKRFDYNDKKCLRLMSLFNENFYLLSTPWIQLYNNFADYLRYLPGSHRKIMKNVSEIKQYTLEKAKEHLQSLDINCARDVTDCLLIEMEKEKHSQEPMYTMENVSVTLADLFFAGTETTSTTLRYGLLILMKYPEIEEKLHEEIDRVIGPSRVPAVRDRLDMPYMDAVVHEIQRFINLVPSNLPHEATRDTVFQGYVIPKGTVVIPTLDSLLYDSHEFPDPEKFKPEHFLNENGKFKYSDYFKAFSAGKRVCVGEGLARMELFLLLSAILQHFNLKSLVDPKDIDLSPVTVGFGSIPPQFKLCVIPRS", "conditions": "IC50 CYP2E1, single components; RLM 0.2 mg/mL, 15 min, triplicate, mean ± SD"}, "CYP2D6 [6]": {"tested_on": "CYP2D6", "conditions": "read-out: Reported Km; probe substrate DEX, CYP2D6, literature range ref 9; cited from earlier work"}, "CYP2C19 [7]": {"tested_on": "CYP2C19", "conditions": "read-out: Reported Km; probe substrate OME, CYP2C19, literature range ref 9; cited from earlier work"}, "CYP2C9 [8]": {"tested_on": "CYP2C9", "conditions": "read-out: Reported IC50; positive inhibitor of CYP2C9, literature ref 17,18; cited from earlier work"}, "CYP2B6 [9]": {"tested_on": "CYP2B6", "conditions": "positive inhibitor of CYP2B6, literature ref 12,13; read-out: Reported IC50; cited from earlier work"}, "not read": {"substrate": "CCOc1ccc(NC(C)=O)cc1", "test": "not read", "conditions": "other: probe substrate, PHE to dEtPHE, CYP1A2, n = 3; pH 7.4; 37.0 °C"}}, "note": "Where two headings read alike, the source gives them in different places.", "data": [{"molecule": "O=c1c(O)c(-c2ccc(O)c(O)c2)oc2cc(O)cc(O)c12", "note": "[A16, quercetin]", "values": [{"measurement": "IC50", "setting": "CYP2C19 [1]; Sprague-Dawley, microsomes, pH 7.4", "result": "46.4 ± 7.05", "unit": "µM"}, {"measurement": "IC50", "setting": "CYP2B6 [2]; Sprague-Dawley, rat, pH 7.4", "result": "68.5 ± 9.88", "unit": "µM"}, {"measurement": "IC50", "setting": "CYP2C9 [3]", "result": "13.5 ± 2.41", "unit": "µM"}, {"measurement": "IC50", "setting": "CYP2D6 [4]; Sprague-Dawley, microsomes", "result": "31.1 ± 3.91", "unit": "µM"}, {"measurement": "IC50", "setting": "CYP3A4", "result": "[…]"}, {"measurement": "IC50", "setting": "[5]", "result": "≤ 15", "unit": "µM"}, {"measurement": "IC50", "setting": "CYP2E1", "result": "20.3 ± 4.13", "unit": "µM"}]}, {"molecule": "COc1ccc2c(c1)[C@]13CCCC[C@@H]1[C@H](C2)N(C)CC3", "note": "[DEX, dextromethorphan, reference compound]", "values": [{"measurement": "Km", "setting": "CYP2D6 [4]; SD", "result": "0.62 ± 0.08", "unit": "µM"}, {"measurement": "Km", "setting": "CYP2D6 [6]", "result": "0.44 to 8.5", "unit": "µM"}]}, {"molecule": "COc1ccc2[nH]c([S+]([O-])Cc3ncc(C)c(OC)c3C)nc2c1", "note": "(stereo not shown) [OME, omeprazole, reference compound]", "values": [{"measurement": "Km at 15 min", "setting": "CYP2C19 [1]; SD, pooled rat liver microsomes, pH 7.4, probe omeprazole", "result": "7.8 ± 1.65", "unit": "µM"}, {"measurement": "Km", "setting": "CYP2C19 [7]", "result": "17 to 26", "unit": "µM"}]}, {"molecule": "Nc1ccc(S(=O)(=O)Nc2ccnn2-c2ccccc2)cc1", "note": "[SUL, sulfaphenazole, reference compound]", "values": [{"measurement": "IC50", "setting": "CYP2C9 [3]", "result": "[…]"}, {"measurement": "IC50", "setting": "CYP2C9 [8]", "result": "[…]"}]}, {"molecule": "S=P(N1CC1)(N1CC1)N1CC1", "note": "[TRI, triethylenethiophosphoramide, reference compound]", "values": [{"measurement": "IC50", "setting": "CYP2B6 [2]", "result": "0.75 ± 0.0262", "unit": "µM"}, {"measurement": "IC50", "setting": "CYP2B6 [9]", "result": "1.75 to 26", "unit": "µM"}]}, {"molecule": "CYP1A2 (Rattus norvegicus) (protein) MAFSQYISLAPELLLATAIFCLVFWVLRGTRTQVPKGLKSPPGPWGLPFIGHMLTLGKNPHLSLTKLSQQYGDVLQIRIGSTPVVVLSGLNTIKQALVKQGDDFKGRPDLYSFTLITNGKSMTFNPDSGPVWAARRRLAQDALKSFSIASDPTSVSSCYLEEHVSKEANHLISKFQKLMAEVGHFEPVNQVVESVANVIGAMCFGKNFPRKSEEMLNLVKSSKDFVENVTSGNAVDFFPVLRYLPNPALKRFKNFNDNFVLFLQKTVQEHYQDFNKNSIQDITGALFKHSENYKDNGGLIPQEKIVNIVNDIFGAGFETVTTAIFWSILLLVTEPKVQRKIHEELDTVIGRDRQPRLSDRPQLPYLEAFILEIYRYTSFVPFTIPHSTTRDTSLNGFHIPKECCIFINQWQVNHDEKQWKDPFVFRPERFLTNDNTAIDKTLSEKVMLFGLGKRRCIGEIPAKWEVFLFLAILLHQLEFTVPPGVKVDLTPSYGLTMKPRTCEHVQAWPRFSK", "values": [{"measurement": "Km", "setting": "not read", "result": "65.26 ± 14.35", "unit": "µM"}]}]}
